Results taken from paper PMC3773049 (Journal of the American Chemical Society, 2013).
Like-named read-outs stand apart in the source and are kept apart here.

Tests used:
human i-20S β5i = human i-20S β5i (Homo sapiens, UniProt P20618+P28062); assay: Inhibition of human immunoproteasome β5i; type: biochemical; settings: Table 2
[1] = test system: mycobacterial proteasome in M. bovis strain BCG; type: cell-based; settings: for protection of mycobacterial proteasome from HT1171: then HT1171 25 μM 1 hour
[2] = over 22 hours
Mtb20SOG [3] = target: T1, Mtb20SOG (Mycobacterium tuberculosis, UniProt P9WHT9)
Mtb20SOG [4] = target: T1, Mtb20SOG; remark: listed apart in the source
Mtb20SOG [5] = target: Mtb20SOG
human c-20S β5c = human c-20S β5c (Homo sapiens, UniProt P20618+P28074); assay: Inhibition of human constitutive 20S β5c; type: biochemical; settings: read-out: Ki μM β5c; Table 2

T1 sequence (P9WHT9 58-291): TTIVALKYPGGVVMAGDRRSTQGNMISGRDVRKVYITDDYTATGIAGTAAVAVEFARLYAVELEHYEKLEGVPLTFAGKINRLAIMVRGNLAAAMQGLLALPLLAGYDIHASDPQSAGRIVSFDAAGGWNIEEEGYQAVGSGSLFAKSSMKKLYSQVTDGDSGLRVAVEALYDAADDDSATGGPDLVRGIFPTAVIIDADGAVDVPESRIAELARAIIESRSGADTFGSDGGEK

Compound	Ki(β5i)/Ki(Mtb) (human i-20S β5i)	Ki (human i-20S β5i; read-out: Ki μM β5i)	protection of mycobacterial proteasome from HT1171 ([1]; DPLG-2 1 μM 4 hours)	protection of mycobacterial proteasome from HT1171 ([1]; DPLG-2 10 μM 4 hours)	protection of mycobacterial proteasome from HT1171 ([1]; DPLG-2 50 μM 4 hours)	stability in human plasma [2]	apparent kon (Mtb20SOG [3])	dissociation rate constant koff (Mtb20SOG [3])	mode of inhibition of Mtb20SOG (Mtb20SOG [3])	Ki (Mtb20SOG [3]; read-out: Ki^app calculated from koff/kon)	Ki (Mtb20SOG [3]; read-out: apparent Ki^app against Mtb20SOG)	increase in potency against Mtb20SOG compared to ML9 (Mtb20SOG [4])	Ki (Mtb20SOG [4]; read-out: Ki μM Mtb20SOG)	Ki(β5c)/Ki(Mtb) (Mtb20SOG [5])	species selectivity for Mtb20SOG over human constitutive proteasome β5 subunit (Mtb20SOG [5])	Ki (human c-20S β5c)	inhibition of proteasomes in intact BCG ([1]; HT1171 25 μM, 1 hour, absence of DPLG-2)
CCN(CC)C(=O)C[C@H](NC(=O)CCc1ccccc1)C(=O)N[C@@H](Cc1ccc(F)cc1)C(=O)NCc1cccc2ccccc12 [DPLG-2]	3650	54.7 µM	HT1171 inhibited the proteasomes irreversibly	able to shield the mycobacterial proteasome active sites from HT1171	able to shield the mycobacterial proteasome active sites from HT1171	stable	5.7 ± 0.2 × 10^4 M^−1s^−1	0.0015 ± 0.0001 s⁻¹	time-dependent manner	26.3 nM	24.2 ± 0.9 nM	4 fold	0.015 µM	4670	4670 fold	70 µM	–
Cc1sc(-c2nsc(=O)o2)cc1[N+](=O)[O-] [HT1171, reference compound]	–	–	–	–	–	–	–	–	–	–	–	–	–	–	–	–	inhibited the proteasomes irreversibly
